From ChEMBL document CHEMBL1201862, “PubChem BioAssay data set” (2004)
Activity calls are given as the source filed them.

Columns and labels:
[1] = P. falciparum Dd2 growth inhibitors, dose response, SYBR Green, cherry-picked samples (AID 1159567); assay type: functional, cell-based
[2] = Luminescence Cell-Based Dose Confirmation HTS to Identify Inhibitors of Platelet Dense Granule Release. [Related pubchem assays: 1663 (Primary HTS), 1678 (Summary of Project)]; assay type: functional
[3] = target: Luciferin 4-monooxygenase (Photinus pyralis, UniProt P08659); test: firefly luciferase enzyme inhibitors, dose response, biochemical, luminescence (AID 1891)
Sequence of Luciferin 4-monooxygenase (P08659 whole entry): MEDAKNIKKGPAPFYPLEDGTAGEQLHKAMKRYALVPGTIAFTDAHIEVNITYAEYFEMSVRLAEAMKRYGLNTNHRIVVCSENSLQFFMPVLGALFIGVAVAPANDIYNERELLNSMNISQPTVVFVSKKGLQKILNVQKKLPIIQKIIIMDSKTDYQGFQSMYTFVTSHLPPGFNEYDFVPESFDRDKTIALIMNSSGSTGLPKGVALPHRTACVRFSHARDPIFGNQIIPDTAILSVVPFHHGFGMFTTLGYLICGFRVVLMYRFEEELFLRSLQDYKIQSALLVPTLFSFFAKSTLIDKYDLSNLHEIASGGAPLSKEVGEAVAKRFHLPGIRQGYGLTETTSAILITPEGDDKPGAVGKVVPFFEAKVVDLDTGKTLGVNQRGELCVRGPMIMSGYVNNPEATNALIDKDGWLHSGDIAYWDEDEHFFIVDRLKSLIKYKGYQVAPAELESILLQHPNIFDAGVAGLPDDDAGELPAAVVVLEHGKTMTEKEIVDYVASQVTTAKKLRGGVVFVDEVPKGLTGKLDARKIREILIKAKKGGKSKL

[4] = target: T1, Rac GTPase-activating protein 1 (Homo sapiens, UniProt Q9H0H5); test: MgcRacGAP GTPase-activating activity inhibitors, confirmation, biochemical, ADP Hunter fluorescence, primary and confirmatory (AID 624330); assay type: functional
T1 sequence (Q9H0H5 whole entry): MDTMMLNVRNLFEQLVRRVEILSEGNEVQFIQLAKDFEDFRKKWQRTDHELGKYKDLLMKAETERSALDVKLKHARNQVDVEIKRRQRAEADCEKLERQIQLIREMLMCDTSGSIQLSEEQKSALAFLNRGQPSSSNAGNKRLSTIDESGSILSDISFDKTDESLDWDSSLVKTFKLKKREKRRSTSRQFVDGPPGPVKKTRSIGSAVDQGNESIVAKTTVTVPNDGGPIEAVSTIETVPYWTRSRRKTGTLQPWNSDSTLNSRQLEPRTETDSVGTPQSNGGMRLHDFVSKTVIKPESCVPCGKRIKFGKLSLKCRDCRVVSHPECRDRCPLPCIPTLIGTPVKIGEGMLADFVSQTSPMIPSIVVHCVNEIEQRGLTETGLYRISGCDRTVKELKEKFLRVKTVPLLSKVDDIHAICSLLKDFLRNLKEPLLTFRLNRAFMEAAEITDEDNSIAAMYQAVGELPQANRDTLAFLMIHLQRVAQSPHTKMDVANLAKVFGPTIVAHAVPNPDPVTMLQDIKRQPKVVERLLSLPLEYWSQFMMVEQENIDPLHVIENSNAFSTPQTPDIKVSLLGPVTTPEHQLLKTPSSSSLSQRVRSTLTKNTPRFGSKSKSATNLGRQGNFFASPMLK

[5] = Luminescence Cell-Based Dose Retest to Confirm Inhibitors of Cancer Stem Cells. [Related pubchem assays (depositor defined):AID2717, AID2721]; assay type: functional; conditions: Homo sapiens
Cytochrome P450 2C19 = Cytochrome P450 2C19 (Homo sapiens, UniProt P33261); test: Cytochrome panel assay with activity outcomes. Panel member name: p450-cyp2c19 Compounds with AC50 equal or less than 10 uM are considered active; assay type: functional; conditions: read-out: AC50
Sequence of Cytochrome P450 2C19 (P33261 whole entry): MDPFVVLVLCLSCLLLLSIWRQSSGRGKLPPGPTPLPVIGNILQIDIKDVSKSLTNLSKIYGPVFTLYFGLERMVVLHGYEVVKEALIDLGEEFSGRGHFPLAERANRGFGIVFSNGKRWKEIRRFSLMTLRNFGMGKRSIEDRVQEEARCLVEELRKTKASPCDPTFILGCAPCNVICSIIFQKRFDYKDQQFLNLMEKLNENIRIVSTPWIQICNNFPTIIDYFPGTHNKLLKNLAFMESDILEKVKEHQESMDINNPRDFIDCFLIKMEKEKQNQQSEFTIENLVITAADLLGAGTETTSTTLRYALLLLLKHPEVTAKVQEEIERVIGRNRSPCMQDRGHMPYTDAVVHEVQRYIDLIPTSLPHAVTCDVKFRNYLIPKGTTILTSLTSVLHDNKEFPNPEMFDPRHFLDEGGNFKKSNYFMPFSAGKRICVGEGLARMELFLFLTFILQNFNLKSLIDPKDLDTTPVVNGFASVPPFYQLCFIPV

[6] = target: T2, Corticotropin-releasing factor receptor 2/Corticotropin-releasing factor-binding protein (Homo sapiens, UniProt P24387+Q13324); test: Dose Response confirmation of uHTS hits for small molecule antagonists of the CRF-binding protein and CRF-R2 receptor complex.; assay type: functional; conditions: read-out: IC50_Mean
T2 sequence (Q13324 whole entry): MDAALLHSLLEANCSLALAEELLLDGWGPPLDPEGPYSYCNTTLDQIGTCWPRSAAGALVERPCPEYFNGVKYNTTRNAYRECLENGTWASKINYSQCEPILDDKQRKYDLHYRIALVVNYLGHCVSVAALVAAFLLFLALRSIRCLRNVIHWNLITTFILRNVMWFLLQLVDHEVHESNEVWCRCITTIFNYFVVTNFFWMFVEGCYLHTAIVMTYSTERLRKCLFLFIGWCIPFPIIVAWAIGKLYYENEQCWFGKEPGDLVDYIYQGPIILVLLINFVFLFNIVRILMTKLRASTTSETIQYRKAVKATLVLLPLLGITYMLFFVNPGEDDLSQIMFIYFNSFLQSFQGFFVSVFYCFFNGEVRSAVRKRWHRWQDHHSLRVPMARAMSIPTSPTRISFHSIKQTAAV
T2 sequence (P24387 whole entry): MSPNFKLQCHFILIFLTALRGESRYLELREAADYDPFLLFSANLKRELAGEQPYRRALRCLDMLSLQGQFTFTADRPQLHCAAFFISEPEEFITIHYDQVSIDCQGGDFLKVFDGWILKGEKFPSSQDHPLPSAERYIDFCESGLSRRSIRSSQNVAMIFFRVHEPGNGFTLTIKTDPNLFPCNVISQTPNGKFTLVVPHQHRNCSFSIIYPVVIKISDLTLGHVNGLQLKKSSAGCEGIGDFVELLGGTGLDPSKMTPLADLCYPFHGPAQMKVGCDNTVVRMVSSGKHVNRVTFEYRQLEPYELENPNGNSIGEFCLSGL

[7] = target: T2, Corticotropin-releasing factor receptor 2/Corticotropin-releasing factor-binding protein; test: activators of CRF receptor 2 with binding protein – uHTS hits, confirmation (AID 602473); assay type: functional; conditions: read-out: EC50_Mean
[8] = target: T3, Heat shock factor protein 1 (Mus musculus, UniProt P38532); test: inhibition of MG132-induced HSE-luciferase signal, confirmation, cell-based, NIH3T3, luminescence, dose retest (AID 2382); assay type: functional;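 note: NIH3T3 fibroblasts with HSF1-driven luciferase reporter stressed by proteasome inhibitor MG132; luminescence from HSF1-driven luciferase expression after 8 hours of MG132 stress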
T3 sequence (P38532 whole entry): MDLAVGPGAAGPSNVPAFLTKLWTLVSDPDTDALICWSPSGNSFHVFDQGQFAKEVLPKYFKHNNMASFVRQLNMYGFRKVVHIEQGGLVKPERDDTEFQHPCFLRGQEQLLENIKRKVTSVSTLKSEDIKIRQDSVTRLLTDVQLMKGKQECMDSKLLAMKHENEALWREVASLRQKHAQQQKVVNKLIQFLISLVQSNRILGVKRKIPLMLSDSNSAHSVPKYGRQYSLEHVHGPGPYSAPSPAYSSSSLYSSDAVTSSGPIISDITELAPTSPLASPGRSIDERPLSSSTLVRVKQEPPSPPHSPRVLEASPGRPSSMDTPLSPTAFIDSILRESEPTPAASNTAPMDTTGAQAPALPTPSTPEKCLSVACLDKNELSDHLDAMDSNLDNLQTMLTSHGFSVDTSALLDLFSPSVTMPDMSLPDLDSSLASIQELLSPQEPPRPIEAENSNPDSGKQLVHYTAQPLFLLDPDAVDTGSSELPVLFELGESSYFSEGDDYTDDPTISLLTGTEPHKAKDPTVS

Cytochrome P450 2C9 = Cytochrome P450 2C9 (Homo sapiens, UniProt P11712)
Sequence of Cytochrome P450 2C9 (P11712 whole entry): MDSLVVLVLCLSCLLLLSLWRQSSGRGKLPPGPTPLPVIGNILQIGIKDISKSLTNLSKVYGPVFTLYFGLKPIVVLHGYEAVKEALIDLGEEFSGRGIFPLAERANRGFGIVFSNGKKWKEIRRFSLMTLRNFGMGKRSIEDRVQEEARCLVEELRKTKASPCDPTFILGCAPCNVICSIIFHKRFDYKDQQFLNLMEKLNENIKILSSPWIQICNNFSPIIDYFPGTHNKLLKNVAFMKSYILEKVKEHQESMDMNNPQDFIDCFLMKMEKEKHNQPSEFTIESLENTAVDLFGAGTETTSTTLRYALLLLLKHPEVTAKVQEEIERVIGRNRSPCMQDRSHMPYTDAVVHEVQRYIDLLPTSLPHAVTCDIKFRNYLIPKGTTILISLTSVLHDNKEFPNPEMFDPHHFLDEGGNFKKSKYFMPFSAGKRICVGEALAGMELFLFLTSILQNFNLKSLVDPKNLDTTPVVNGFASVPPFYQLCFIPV

With COc1ccccc1S(=O)(=O)N[C@H]1CC[C@@H](CCn2cc(C3CCCC3)nn2)O[C@@H]1CO the AC50 [1] was 11.5 µM (active).
For O=C(Nc1cccc(O)c1)c1noc2c1CCc1ccccc1-2, the EC50 [2] was 8.29 µM (active) and the EC50 [3] was 1.03 µM (active).
For Cc1sc2ncnc(N(C)CCc3ccccn3)c2c1C, the IC50 [4] was 148 µM (active).
For CC(C)=CCc1c(O)cc2c(=O)c3ccc(O)cc3oc2c1O, the AC50 [5] was 5.16 µM (active).
In the case of CC[C@@H]1CC=C[C@H]2[C@H]1C(=O)N(Cc1ccccc1)[C@H]2c1ccoc1, the AC50 [5] is reported as 5.39 µM (active).
In the case of Cc1cccc(C(=N)NOC(=O)c2ccc(Cl)cc2Cl)c1, the EC50 [2] is reported as 3.2 µM (active) and the EC50 [3] is reported as 0.761 µM (active).
With CCN(CCO)Cc1csc2cccc(Br)c12 the AC50 (Cytochrome P450 2C19) was 22.4 µM (inconclusive), the IC50 [6] was > 47.1 µM (inactive) and the EC50 [7] was > 53 µM (inactive).
In the case of COc1ccc(Br)cc1CNC(=O)c1ccc2c(c1)N(C)CCS2, the EC50 [2] is reported as > 112 µM (not active) and the EC50 [3] is reported as > 112 µM (not active).
For Nc1nc(NCc2ccco2)nc(NC2CCCCC2)c1[N+](=O)[O-], the EC50 [8] was > 195 µM (not active).
In the case of N#CC1(Nc2ccc3c4c(cccc24)CC3)CCCCC1, the IC50 [4] is reported as 18.5 µM (active).
With CCOc1cc(/C=N/NC(=O)C2CCCC2)ccc1O the IC50 [4] was 52.1 µM (active).
In the case of O=C(c1ccc(S(=O)(=O)Nc2ccccc2)cc1)N1CCCC1, the EC50 [2] is reported as > 112 µM (not active) and the EC50 [3] is reported as > 112 µM (not active).
In the case of CN1CCc2c(sc(NC(=O)c3ccc(S(=O)(=O)N4CCc5ccccc54)cc3)c2C(N)=O)C1, the AC50 [5] is reported as 2.91 µM (active).
For CN(C)C(CNS(=O)(=O)c1ccc2ccccc2c1)c1ccccc1 (configuration not stated), the AC50 [5] was > 195 µM (inactive).
In the case of O=C(/C(=C/c1cccnc1)n1ccnc1)c1ccc(Cl)cc1Cl, the IC50 [4] is reported as 223 µM (active).
For O=c1cc(N2CCCCC2)c(-c2ccccc2)nn1Cc1ccccc1, the AC50 [5] was 2.06 µM (active).
With CCOc1cc(/C=N/NC(=O)c2cccc(S(=O)(=O)N3CCOCC3)c2)ccc1OCC(=O)N(C)C the EC50 [8] was > 195 µM (not active).
In the case of N#Cc1nc(Cc2ccccc2)oc1N1CCCC1, the EC50 [2] is reported as > 112 µM (not active) and the EC50 [3] is reported as 18.5 µM (active).
With O=C1C2CCCN2c2ccc(S(=O)(=O)N3CCOCC3)cc2N1Cc1cccc(C(F)(F)F)c1 (configuration not stated) the AC50 (Cytochrome P450 2C19) was 3.55 µM (inconclusive) and the EC50 [8] was > 195 µM (not active).
For CCOC(=O)CSc1nnc(-c2ccccc2)c(-c2ccccc2)n1, the EC50 [8] was > 195 µM (not active).
For COCC(C)NCc1ccccc1C (configuration not stated), the IC50 [4] was 138 µM (active).
In the case of Cc1cccc(CN2CCNC2=O)c1, the EC50 [8] is reported as > 195 µM (not active).
In the case of Cc1cc(NC(=O)CN2CCC(C)CC2)no1, the IC50 [4] is reported as 253 µM (active).
For Cc1ccc(S(=O)(=O)N2CCN(C(=O)c3c(-c4ccccc4)noc3C)CC2)c(C)c1, the EC50 [8] was > 195 µM (not active).
For Cc1cccc(Nc2ccncc2S(=O)(=O)NC(=O)NC(C)C)c1 [TORSEMIDE], the AC50 (Cytochrome P450 2C9) was 12.6 µM (inconclusive) and the EC50 [8] was > 195 µM (not active).
For CCCCn1c(=O)n(CC(=O)Nc2c(CC)cccc2CC)c(=O)c2c1nc(CO)n2CCC, the EC50 [8] was > 195 µM (not active).
For COc1ccc(C(=O)/C=C/c2ccc(O)cc2)cc1, the IC50 [4] was 37 µM (active).
In the case of CN(C)c1c([N+](=O)[O-])ncn1C, the IC50 [6] is reported as > 47.1 µM (inactive) and the EC50 [7] is reported as > 53 µM (inactive).
With CC(C)(C)[S+]([O-])N1Cc2cc(C(=O)N[C@@H]3CCN(Cc4ccccc4)C3)nc(-c3cccc(C#CCC4CCCC4)c3)c2[C@H]1CCO (some centres not stated) the AC50 [1] was 3.75 µM (active).
In the case of CCn1c(C(=O)O)c(CC(=O)Nc2ccccc2OC)c2ccccc21, the EC50 [8] is reported as > 195 µM (not active).
In the case of COc1ccc2[nH]cc(CCN=C(S)NC3CCCC3)c2c1, the IC50 [6] is reported as > 47.1 µM (inactive) and the EC50 [7] is reported as > 53 µM (inactive).
With Nc1cc(OC(=O)c2ccco2)nn1S(=O)(=O)c1ccc(F)cc1 the IC50 [6] was 34.8 µM (active) and the EC50 [7] was > 53 µM (inactive).
For O=C(Nc1cccc(F)c1)C1CCN(C(=O)Cc2ccccc2)CC1, the EC50 [2] was > 112 µM (not active) and the EC50 [3] was > 112 µM (not active).
For Cc1cc(-c2ccc(S(=O)(=O)N3CCN(c4ccccc4F)CC3)s2)on1, the EC50 [2] was > 112 µM (not active) and the EC50 [3] was > 112 µM (not active).
With CN1CCN(/N=C/c2nc(-c3ccccc3)n3ccccc23)CC1 the IC50 [4] was 29.1 µM (active).
In the case of COc1ccc(C2=NN(C)/C(=N\Cc3ccccc3)SC2)cc1, the IC50 [6] is reported as > 47.1 µM (inactive) and the EC50 [7] is reported as > 53 µM (inactive).
With Cn1nc(N)c2ncc(C(Cl)(Cl)Cl)nc21 the IC50 [6] was > 47.1 µM (inactive) and the EC50 [7] was > 53 µM (inactive).
With COc1ccc(N2C(=O)C(C)(C)C2c2c(O)ccc3ccccc23)cc1 (configuration not stated) the EC50 [8] was > 195 µM (not active).
For C[C@H]1CN([C@@H](C)CO)C(=O)c2cc(NC(=O)Cc3cn(C)c4ccccc34)ccc2O[C@H]1CN(C)S(=O)(=O)c1ccccc1, the AC50 [1] was 4.86 µM (active).
In the case of Cc1ccc(S(=O)(=O)NC(=NCc2ccccc2)c2ccc(F)cc2)cc1, the EC50 [8] is reported as > 195 µM (not active).
For CCOC(=O)C1CCCN(C(=O)CCCn2nc(C)n3c(cc4sccc43)c2=O)C1 (configuration not stated), the EC50 [2] was > 112 µM (not active) and the EC50 [3] was > 112 µM (not active).
In the case of CCCCNC(=O)CN=C(S)N(Cc1ccccc1)Cc1cccs1, the EC50 [8] is reported as > 195 µM (not active).
In the case of CC(Cc1ccccc1)Nc1ncnc2c1ncn2C1OC(CO)C(O)C1O (configuration not stated), the EC50 [2] is reported as < 0.701 µM (active) and the EC50 [3] is reported as > 112 µM (not active).
In the case of Cc1ccccc1Nc1scc(-c2ccc(Br)cc2)[n+]1-c1ccccc1C, the IC50 [6] is reported as > 47.1 µM (inactive) and the EC50 [7] is reported as > 53 µM (inactive).
For COc1ccc(Cn2nnnc2C(c2cccnc2)N2CCN(c3ccc(O)cc3)CC2)cc1 (configuration not stated), the IC50 [4] was 39.6 µM (active).
With CCc1nn(CC(=O)N2CCC(C(N)=O)CC2)c(=O)c2cc3occc3n12 the EC50 [8] was > 195 µM (not active).
With COc1ccc(CN2CC3(C2)CN(Cc2ccc4c(c2)OCO4)[C@H](CO)c2[nH]c4cc(OC)ccc4c23)cc1 the AC50 [1] was 3.49 µM (active).
With Cc1nc2oc3c(NCC4CCCO4)ncnc3c2c2c1COC(C)(C)C2 (configuration not stated) the EC50 [2] was > 112 µM (not active) and the EC50 [3] was > 112 µM (not active).
With O=C(Cn1c(O)c(N=NC(=O)c2ccncc2)c2ccccc21)Nc1ccccc1 the EC50 [2] was > 112 µM (not active) and the EC50 [3] was > 112 µM (not active).
With CCOc1ccc(CN2CCN(CCCn3cccn3)CC2CCO)cc1 (configuration not stated) the EC50 [2] was 83.2 µM (active) and the EC50 [3] was > 112 µM (not active).
